Results published in patent publication US9914709B2, “Compositions and methods of treating HIV-1 infections using same” (YALE UNIVERSITY, priority 2013, dated 2018).
pEC50: −log10 of the molar value. Values after ≈ are worked out from the molar mass of the structure shown. Where two headings read alike, the source gives them in different places. Marks after values point to notes of the source that are not given here.

Assays:
[1] = test system: IIIB strain of HIV-1 (wild-type); assay: Anti-HIV-1 activity, MT-2 cells infected with wild-type HIV-1 (IIIB), MTT method; type: cell-based; details: for pEC50: Human immunodeficiency virus 1, IIIB, MT2, read-out: EC50 WT
in vitro = details: human
[2] = test system: HIV-1 K103N/Y181C variant; assay: microbe, parasite or virus in culture; type: cell-based
HIV-1 Y181C variant = assay: microbe, parasite or virus in culture; type: cell-based
physchem = details: for solubility at 48 h: 25 °C, thermodynamic from solid; for increase in S: 48 h
Method: The compounds were dissolved in Britton-Robinson buffer and stirred in vials for 48 hours at 25° C. The pH of the buffer solutions was measured by a Corning General Purpose pH Combination probe (4136L21).
For measurement of aqueous solubility, the pH of the buffer solutions was measured by Corning Combination pH Electrodes (4136L21) pH meter with Ag/AgCl glass electrode. […] An Ika® RCT basic magnetic stirrer was used to mix the two phases.
The equilibrium solubility of the non-ionized form of the samples was determined by the shake flask method. For each reported solubility result, two or three independent shake-flask experiments were carried out in parallel. For each experiment the 5 mg of the solid was added to 5 mL of the buffer in a vial. […] The standards and samples were measured by UV spectrophotometry at the maximum wavelength of the individual compounds.

[3] = cited from earlier work; for aqueous solubility: literature values
[4] = Human immunodeficiency virus 1, MT2, read-out: EC50 K103N/Y181C
[5] = Human immunodeficiency virus 1, MT2, read-out: EC50 Y181C
[6] = Human immunodeficiency virus 1, MT2, read-out: EC50, Y181C variant

`Cc1cc(/C=C/C#N)cc(C)c1Nc1cc(OCCCN2CCOCC2)nc(Nc2ccc(C#N)cc2)n1` [Compound 5c, (E)-4-((4-((4-(2-cyanovinyl)-2,6-dimethylphenyl)amino)-6-(3-morpholinopropoxy)pyrimidin-2-yl)amino)benzonitrile] gave a pEC50 [1] of 8.43, a CC50 (in vitro) of 6400 nM and a pEC50 [2, 4] of 8.52. It also gave a pEC50 (HIV-1 Y181C variant; [5]) of 7.82 and a solubility at 48 h (physchem; pH 6.5, aqueous buffer) of 2 µg/mL.
`Cc1cc(/C=C/C#N)cc(C)c1Nc1nc(NCCCN2CCOCC2)nc(Nc2ccc(C#N)cc2)n1` [JLJ0596, (E)-4-((4-((4-(2-cyanovinyl)-2,6-dimethylphenyl)amino)-6-((3-morpholinopropyl)amino)-1,3,5-triazin-2-yl)amino)benzonitrile] showed a pEC50 [1] of 8.15, a CC50 (in vitro) of 1800 nM and a pEC50 [2, 4] of 7.17. For the same compound, the pEC50 (HIV-1 Y181C variant; [5]) was 6.29.
In the case of `CN1C(C(=O)Nc2ccccn2)=C(O)c2ccccc2S1(=O)=O` [Piroxicam, reference compound], the aqueous solubility [3] is listed as 6.4 µg/mL (≈ 19.3 µM) and the “Aqueous Solubility (S)” value (physchem; shake-flask, 25° C.) is listed as 7.2 µg/mL.
`Cc1cc(C)c(Nc2cc(OCCCN3CCOCC3)nc(Nc3ccc(C#N)cc3)n2)c(C)c1` [Compound 5b, 4-((4-(mesitylamino)-6-(3-morpholinopropoxy)pyrimidin-2-yl)amino)benzonitrile] gave a pEC50 [2, 4] of 7.42, a pEC50 (HIV-1 Y181C variant; [6]) of 6.32 and a pEC50 (HIV-1 Y181C variant; [5]) of 6.32. For the same compound, the “increase in S” value (physchem) was 182 fold and the “Aqueous Solubility (S)” value (physchem; Table 5, pH 6.5) was 27.3 µg/mL.
With `Cc1cc(C)c(Nc2nc(Nc3ccc(C#N)cc3)nc(OCCC3CCNCC3)n2)c(C)c1` [Compound 12a, 4-((4-(mesitylamino)-6-(2-(piperidin-4-yl)ethoxy)-1,3,5-triazin-2-yl)amino)benzonitrile] the pEC50 [2, 4] was 7.38 and the pEC50 (HIV-1 Y181C variant; [5]) was 6.00.
`Cc1cc(C)c(Nc2cc(OCCN3CCOCC3)nc(Nc3ccc(C#N)cc3)n2)c(C)c1` [Compound 5a, 4-((4-(mesitylamino)-6-(2-morpholinoethoxy)pyrimidin-2-yl)amino)benzonitrile] showed a pEC50 [2, 4] of 7.22, a pEC50 (HIV-1 Y181C variant; [6]) of 6.15 and a pEC50 (HIV-1 Y181C variant; [5]) of 6.15. For the same compound, the “increase in S” value (physchem) was 83 fold and the “Aqueous Solubility (S)” value (physchem; Table 5, pH 6.5) was 12.5 µg/mL.
`Cc1cc(C)c(Nc2nc(Nc3ccc(C#N)cc3)nc(OCCCC3CCNCC3)n2)c(C)c1` [Compound 12b, 4-((4-(mesitylamino)-6-(3-(piperidin-4-yl)propoxy)-1,3,5-triazin-2-yl)amino)benzonitrile] showed a pEC50 [2, 4] of 6.85 and a pEC50 (HIV-1 Y181C variant; [5]) of 5.92.
In the case of `N#C/C=C/c1cc(F)c(Nc2nc(Nc3ccc(C#N)cc3)nc(OCCCN3CCOCC3)n2)c(F)c1` [Compound 6j, (E)-4-((4-((4-(2-cyanovinyl)-2,6-difluorophenyl)amino)-6-(3-morpholinopropoxy)-1,3,5-triazin-2-yl)amino)benzonitrile], the pEC50 [1] was 7.85, the CC50 (in vitro) was 6500 nM and the pEC50 [2, 4] was 7.34. It also gave a pEC50 (HIV-1 Y181C variant; [5]) of 6.20.
In the case of `CC(C)=CCOc1cc(NC(=S)c2ccoc2C)ccc1Cl` [UC-781], the solubility ([3]; Yang et al. 2008) is listed as < 0.03 µg/mL.
Compound `Cc1cc(/C=C/C#N)cc(C)c1Nc1cc(NCCCN2CCOCC2)nc(Nc2ccc(C#N)cc2)n1` [JLJ0618, (E)-4-((4-((4-(2-cyanovinyl)-2,6-dimethylphenyl)amino)-6-((3-morpholinopropyl)amino)pyrimidin-2-yl)amino)benzonitrile] has a pEC50 [1] of 8.52, a CC50 (in vitro) of 4500 nM and a pEC50 [2, 4] of 8.70. It also gave a pEC50 (HIV-1 Y181C variant; [5]) of 7.77.
In the case of `CCc1cc(F)c(Nc2nc(Nc3ccc(C#N)cc3)nc(OCCCN3CCOCC3)n2)c(F)c1` [Compound 6f, 4-((4-((4-ethyl-2,6-difluorophenyl)amino)-6-(3-morpholinopropoxy)-1,3,5-triazin-2-yl)amino)benzonitrile], the pEC50 [2, 4] was 7.30 and the pEC50 (HIV-1 Y181C variant; [5]) was 6.30.
With `Cc1cc(C#N)cc(C)c1Nc1nc(Nc2ccc(C#N)cc2)nc(OCCCN2CCOCC2)n1` [Compound 6c, 4-((4-((4-cyanophenyl)amino)-6-(3-morpholinopropoxy)-1,3,5-triazin-2-yl)amino)-3,5-dimethylbenzonitrile] the pEC50 [2, 4] was 7.38, the pEC50 (HIV-1 Y181C variant; [5]) was 6.00 and the “Aqueous Solubility (S)” value (physchem; Table 5, pH 6.5) was 13.3 µg/mL.
In the case of `Cc1cc(C#N)cc(C)c1Oc1nc(Nc2ccc(C#N)cc2)nc(N)c1Br` [etravirine], the “Aqueous Solubility (S)” value ([3]; Table 5, literature values (Morelock 1994; Weuts 2011)) is given as <<1^b μg/mL and the aqueous solubility [3] is given as “lower than 1 μg/mL”.
With `COc1nc(Nc2ccc(C#N)c(OCC=C(C)C)c2)nc(OCCN2CCOCC2)n1` [Compound 2j, 4-((4-methoxy-6-(2-morpholinoethoxy)-1,3,5-triazin-2-yl)amino)-2-((3-methylbut-2-en-1-yl)oxy)benzonitrile] the “reduction in wild-type potency” value ([1]; relative to parent lacking the morpholinoalkoxy group (2a; 10a)) was 9 fold, the “activity in the wild-type cell assay less” value ([1]; than rilpivirine or dapivirine) was 100 fold and the “activity towards the Y181C-containing viral variant” value (HIV-1 Y181C variant) was “does not show activity”.
For `N#Cc1ccc(Nc2nc(Nc3c(F)cc(C4CC4)cc3F)nc(OCCCN3CCOCC3)n2)cc1` [Compound 6h, 4-((4-((4-cyclopropyl-2,6-difluorophenyl)amino)-6-(3-morpholinopropoxy)-1,3,5-triazin-2-yl)amino)benzonitrile], the pEC50 [2, 4] was 6.82 and the pEC50 (HIV-1 Y181C variant; [5]) was 5.96.
For `Cc1cc(F)c(Nc2nc(Nc3ccc(C#N)cc3)nc(OCCCN3CCOCC3)n2)c(F)c1` [Compound 6e, 4-((4-((2,6-difluoro-4-methylphenyl)amino)-6-(3-morpholinopropoxy)-1,3,5-triazin-2-yl)amino)benzonitrile], the pEC50 [2, 4] was 7.15, the pEC50 (HIV-1 Y181C variant; [5]) was 6.46 and the “Aqueous Solubility (S)” value (physchem; Table 5, pH 6.5) was 22.9 µg/mL.
In the case of `Cc1cc(/C=C/C#N)cc(C)c1Nc1nc(Nc2ccc(C#N)cc2)nc(OCCCN2CCOCC2)n1` [Compound 6d, (E)-4-((4-((4-(2-cyanovinyl)-2,6-dimethylphenyl)amino)-6-(3-morpholinopropoxy)-1,3,5-triazin-2-yl)amino)benzonitrile], the solubility at 48 h (physchem; aqueous buffer) was 14.2 µg/mL, the “increase in S” value (physchem) was 100 fold and the “Aqueous Solubility (S)” value (physchem; Table 5, pH 6.5) was 14.2 µg/mL.
Compound `N#C/C=C/c1cc(F)c(Nc2cc(NCCCN3CCOCC3)nc(Nc3ccc(C#N)cc3)n2)c(F)c1` [JLJ0619, (E)-4-((4-((4-(2-cyanovinyl)-2,6-difluorophenyl)amino)-6-((3-morpholinopropyl)amino)pyrimidin-2-yl)amino)benzonitrile] has a pEC50 [1] of 8.35, a CC50 (in vitro) of 2200 nM and a pEC50 [2, 4] of 7.47. The pEC50 (HIV-1 Y181C variant; [5]) was 6.33.
Compound `CC(C)c1cc(F)c(Nc2nc(Nc3ccc(C#N)cc3)nc(OCCCN3CCOCC3)n2)c(F)c1` [Compound 6g, 4-((4-((2,6-difluoro-4-isopropylphenyl)amino)-6-(3-morpholinopropoxy)-1,3,5-triazin-2-yl)amino)benzonitrile] has a pEC50 [2, 4] of 7.52 and a pEC50 (HIV-1 Y181C variant; [5]) of 6.57.
In the case of `Cc1cc(C)c(Nc2nc(Nc3ccc(C#N)cc3)nc(OCCCN3CCOCC3)n2)c(C)c1` [Compound 6b, 4-((4-(mesitylamino)-6-(3-morpholinopropoxy)-1,3,5-triazin-2-yl)amino)benzonitrile], the pEC50 ([2]; Human immunodeficiency virus 1, MT2, read-out: EC50, K103N/Y181C variant) was 7.51, the pEC50 [2, 4] was 7.51 and the pEC50 (HIV-1 Y181C variant; [6]) was 6.51. For the same compound, the pEC50 (HIV-1 Y181C variant; [5]) was 6.51 and the “Aqueous Solubility (S)” value (physchem; Table 5, pH 6.5) was 15.3 µg/mL.
In the case of `N#C/C=C/c1cc(F)c(Nc2cc(OCCCN3CCOCC3)nc(Nc3ccc(C#N)cc3)n2)c(F)c1` [Compound 5d, (E)-4-((4-((4-(2-cyanovinyl)-2,6-difluorophenyl)amino)-6-(3-morpholinopropoxy)pyrimidin-2-yl)amino)benzonitrile], the pEC50 [1] was 8.39, the CC50 (in vitro) was 18000 nM and the pEC50 [2, 4] was 8.15. It also gave a pEC50 (HIV-1 Y181C variant; [5]) of 6.82.
Work on `N#C/C=C/c1cc(F)c(Nc2nc(NCCCN3CCOCC3)nc(Nc3ccc(C#N)cc3)n2)c(F)c1` [JLJ0597, (E)-4-((4-((4-(2-cyanovinyl)-2,6-difluorophenyl)amino)-6-((3-morpholinopropyl)amino)-1,3,5-triazin-2-yl)amino)benzonitrile] yielded a pEC50 [1] of 8.24, a CC50 (in vitro) of 7000 nM and a pEC50 [2, 4] of 7.80. It also gave a pEC50 (HIV-1 Y181C variant; [5]) of 7.12.
With `Cc1cc(C)c(Nc2nc(Nc3ccc(C#N)cc3)nc(OCCN3CCOCC3)n2)c(C)c1` [Compound 6a, 4-((4-(mesitylamino)-6-(2-morpholinoethoxy)-1,3,5-triazin-2-yl)amino)benzonitrile] the pEC50 [2, 4] was 6.96, the pEC50 (HIV-1 Y181C variant; [5]) was 6.15 and the “Aqueous Solubility (S)” value (physchem; Table 5, pH 6.5) was 4.42 µg/mL.
`N#CCCc1cc(F)c(Nc2nc(Nc3ccc(C#N)cc3)nc(OCCCN3CCOCC3)n2)c(F)c1` [Compound 6i, 4-((4-((4-(2-cyanoethyl)-2,6-difluorophenyl)amino)-6-(3-morpholinopropoxy)-1,3,5-triazin-2-yl)amino)benzonitrile] showed a pEC50 [1] of 8.30, a CC50 (in vitro) of 27000 nM and a pEC50 [2, 4] of 7.70. For the same compound, the pEC50 (HIV-1 Y181C variant; [5]) was 6.64 and the solubility at 48 h (physchem; pH 6.5, aqueous buffer) was 25.4 µg/mL.
